We go through one compound from patent US20070293553A1, “Diphenylurea Derivatives Useful As Potassium Channel Activators” (priority 2004, published 2007).

Data set [1] has as its system cough reflex in conscious guinea-pigs. The data set can be described thus: Citric acid-induced cough in conscious guinea-pigs. As to conditions: prior exposure to aerosolized test compound (300 μM in nebulizer solution), 10 minutes citric acid aerosol, FIG. 1. The data set is classed as in vivo, guinea-pig. The protocol: Exposure of animals for 10 minutes with citric acid aerosol elicited a reproducible cough response.
The cough model is based on guinea-pigs that have been pre-screened to assess their cough response to a 10 minutes exposure of aerosolised 0.35 M citric acid. […] The guinea-pigs are then ranked with regard to their tussive response to citric acid and divided into groups so that the mean number of coughs per group is similar in the vehicle and drug treated groups.
Cough is detected both by pressure change and by sound and recorded using a chart recorder. All animals received Terbutaline (0.05 mg/kg i.p.) 10 minutes prior to challenge with citric acid to alleviate any bronchoconstriction that may occur. These animals were allowed to recover for 1 week. Following this rest period the study was initiated and animals received aerosolised vehicle (1% DMSO) or test compound at 300 μM in 1% DMSO in saline for 20 minutes prior to exposure to citric acid. After dosing, the animals were monitored and exposed to 0.35 M citric acid for 10 minutes, and the number of coughs recorded.
Initially N-(3,5-Dichlorophenyl)-N′-[3-(1H-tetrazol-5-yl)-3′-trifluoromethyl-bi-phenyl-4-yl]-urea (Compound A (3-39)) and N-(3,5-Dichlorophenyl)-N′-[4-bromo-2-(1H-tetrazol-5-yl)phenyl]urea (Compound B) were subjected to this determination, and the results of these determinations are presented in FIG. 1.

As usually defined, the melting point is the temperature of the solid-liquid transition. With `O=C(Nc1cc(Cl)cc(Cl)c1)Nc1ccc(-c2cccc(C(F)(F)F)c2)cc1-c1nnn[nH]1` [Compound 3-39, N-(3,5-Dichloro-phenyl)-N′-[3-(1H-tetrazol-5-yl)-3′-trifluoromethyl-biphenyl-4-yl]-urea], the melting point lay in the range of 236 to 239 °C. For the same compound, the “cough response to citric acid” value in data set [1] was “greatly reduced”.
